Converted amounts (≈) assume the structure as drawn.

Results on 19 molecules are retold here after patent publication US20140243302A1, “BRIDGED BICYCLIC COMPOUNDS FOR THE TREATMENT OF BACTERIAL INFECTIONS” (priority 2011, published 2014).

For the first experiment, the system named is Staphylococcus aureus Smith. Description: MIC assay, modified agar dilution (CLSI), S. aureus Smith. The experiment is classed as cell-based. Particulars: Staphylococcus aureus, agar dilution, 35° C., 16-20 hr; lowest concentration that completely inhibited growth; read-out: S_aureus_Smith_WT_MIC. The method, then: The potency of antibacterial agents was measured using the Minimal Inhibitory Concentration (MIC) assay. The assay measures the ability of test agents to inhibit the growth of bacteria on agar-containing medium.
The bacterial test strains used were exemplified by Staphylococcus aureus Smith, Enterococcus faecium A2373, Streptococcus pneumoniae IID554, and Escherichia coli ATCC 25922. All strains were maintained as frozen stocks held at −80° C. in skim milk. Other bacterial test strains are well known to those skilled in the art and can be used for testing.
Mueller Hinton Agar (MHA BBL; Becton Dickinson and Company, Sparks, Md.) was used as the medium. MHA was supplemented with 5% defibrinated horse blood (DHB; Nippon Biotest Laboratories inc.) to support the growth of S. pneumoniae and E. faecium.
MIC values were determined using a modified agar dilution procedure described by the Clinical and Laboratory Standards Institute (CLSI; Methods for Dilution Antimicrobial Susceptibility Tests for Bacteria That Grow Aerobically; Approved Standard—Eighth Edition. CLSI document M07-A8 [ISBN 1-56238-689-1]. Clinical and Laboratory Standards Institute, 940 West Valley Road, Suite 1400, Wayne, Pa. 19087-1898 USA, 2009).
Stock solutions (6.4 mgmL) of test compounds were prepared in 100% ultrapure dimethyl sulfoxide (DMSO; source) on the day of the assay. Subsequent serial dilutions were performed to generate solutions with concentrations ranging from 6.4 to 0.0002 mgmL in 100% DMSO.
Agar medium containing test compound was prepared by adding the dilutions of antimicrobial solution to molten MHA at a temperature of 45-50° C. The agar and antimicrobial solution were mixed thoroughly, poured into petri dishes, and allowed to solidify at room temperature. The final concentration of test compounds in the MHA medium ranged from 128 to 0.001 μg/mL with two-fold dilutions. MHA plates lacking antibacterial compound were used for growth controls.
Prior to susceptibility testing, the bacterial isolates were removed from frozen storage, thawed at room temperature, sub-cultured to MHA medium and incubated overnight at 35° C. S. pneumoniae and E. faecium were subcultured on MHA supplemented with 5% DHB at 35° C. with […]. Colonies from each plate were suspended in normal saline. This suspension was adjusted to the turbidity of a 0.5 McFarland standard, 1-2×10^8 colony forming units (CFU) per mL, and diluted 100-fold to 1-2×10^6 CFUmL.
Suspensions of bacterial cultures were applied to the surface of MHA plates containing test compound as well as to a growth control plate lacking test compound using an inoculum-replicating device with 4 mm pins. The replicating device applied 5 uL of the bacterial suspension such that each spot contained approx. 1×10^4 CFU. Plates were dried for about 40 min and incubated at 35° C. for 16-20 hr prior to scoring.
Regarding `COc1ccc2ncc(F)c(CC(O)C34CCC(NCc5cc6c(cn5)OCCO6)(CC3)CO4)c2n1` (single isomer, unassigned) [Example 132, 1-(4-((2,3-Dihydro-[1,4]dioxino[2,3-c]pyridin-7-yl)methylamino)-2-oxabicyclo[2.2.2]octan-1-yl)-2-(3-fluoro-6-methoxy-1,5-naphthyridin-4-yl)ethanol], the MIC is 0.031 µg/mL (≈ 0.0624 µM). On the same count and under the same terms, then `COc1ccc2ncc(F)c(CC(O)C34CCC(NCc5cc6ccccc6n(C)c5=O)(CC3)CO4)c2n1` (single isomer, unassigned) [Example 133, 3-((1-(2-(3-Fluoro-6-methoxy-1,5-naphthyridin-4-yl)-1-hydroxyethyl)-2-oxabicyclo[2.2.2]octan-4-ylamino)methyl)-1-methylquinolin-2(1H)-one], with 1 µg/mL (≈ 1.93 µM).

On to `COc1ccc2ncc(F)c(CC(O)C34CCC(NCc5cc6c(cn5)OCC(=O)N6)(CC3)CO4)c2n1` (single isomer, unassigned) [Example 134, 7-((1-(2-(3-Fluoro-6-methoxy-1,5-naphthyridin-4-yl)-1-hydroxyethyl)-2-oxabicyclo[2.2.2]octan-4-ylamino)methyl)-1H-pyrido[3,4-b][1,4]oxazin-2(3H)-one], for which the MIC turned out to be 0.063 µg/mL (≈ 0.124 µM). Same read-out and setting: then `COc1ccc2ncc(F)c(CC(O)C34CCC(NCc5nc6c(cc5F)OCC(=O)N6)(CC3)CO4)c2n1` (single isomer, unassigned) [Example 135, 7-Fluoro-6-((1-(2-(3-fluoro-6-methoxy-1,5-naphthyridin-4-yl)-1-hydroxyethyl)-2-oxabicyclo[2.2.2]octan-4-ylamino)methyl)-2H-pyrido[3,2-b][1,4]oxazin-3(4H)-one], with 0.031 µg/mL (≈ 0.0588 µM). The same measure, in the same setting: with `COc1ccc2ncc(F)c(C[C@@H](O)C34CCC(NCc5cc6c(cn5)OCCO6)(CC3)CC4)c2n1.Cl` (single isomer, unassigned) [Example 200] the figure was 0.75 µg/mL. Consider `COc1ccc2ncc(F)c(C[C@H](O)C34CCC(NCc5cc6c(cn5)OCCO6)(CC3)CC4)c2n1.Cl` (single isomer, unassigned) [Example 201], for which the MIC is 0.06 µg/mL. `N#Cc1cnc2ccc(=O)n(CC(O)C34CCC(NCc5cc6c(cn5)OCCO6)(CC3)CO4)c2c1` (single isomer, unassigned; enantiomer a) [Example 159, 5-(2-(4-((2,3-Dihydro-[1,4]dioxino[2,3-c]pyridin-7-yl)methylamino)-2-oxabicyclo[2.2.2]octan-1-yl)-2-hydroxyethyl)-6-oxo-5,6-dihydro-1,5-naphthyridine-3-carbonitrile (Enantiomer A)]: the MIC was 2 µg/mL (≈ 4.09 µM). On the same count and under the same terms, then `N#Cc1cnc2ccc(=O)n(CC(O)C34CCC(NCc5ccc6c(n5)NC(=O)CO6)(CC3)CO4)c2c1` (single isomer, unassigned; enantiomer a) [Example 160, 5-(2-Hydroxy-2-(4-((3-oxo-3,4-dihydro-2H-pyrido[3,2-b][1,4]oxazin-6-yl)methylamino)-2-oxabicyclo[2.2.2]octan-1-yl)ethyl)-6-oxo-5,6-dihydro-1,5-naphthyridine-3-carbonitrile (Enantiomer A)], with 0.25 µg/mL (≈ 0.497 µM); and `COC(=O)C1CC1COc1ccc2ncc(F)c(CCC34CCC(NCc5ccc6c(n5)NC(=O)CO6)(CC3)CO4)c2n1` (single isomer, unassigned; enantiomer a) [Example 227, Methyl 247-Fluoro-8-(2-(4-((3-oxo-3,4-dihydro-2H-pyrido[3,2-b][1,4]oxazin-6-yl)methylamino)-2-oxabicyclo[2.2.2]octan-1-yl)ethyl)-1,5-naphthyridin-2-yloxy)methyl)cyclopropanecarboxylate (Enantiomer A)], with 0.063 µg/mL (≈ 0.106 µM); and `COC(=O)[C@H]1C[C@H]1COc1ccc2ncc(F)c(CCC34CCC(NCc5ccc6c(n5)NC(=O)CO6)(CC3)CO4)c2n1` (single isomer, unassigned; enantiomer b) [Example 228, Methyl 2-((7-Fluoro-8-(2-(4-((3-oxo-3,4-dihydro-2H-pyrido[3,2-b][1,4]oxazin-6-yl)methylamino)-2-oxabicyclo[2.2.2]octan-1-yl)ethyl)-1,5-naphthyridin-2-yloxy)methyl)cyclopropanecarboxylate (Enantiomer B)], with 0.25 µg/mL (≈ 0.423 µM). Same read-out and setting: with `COc1ccc2nccc(CCC34CCC(NCc5ccc6c(n5)NC(=O)CO6)(CC3)CC4)c2n1.Cl` [Example 1, 6-((4-(2-(6-Methoxy-1,5-naphthyridin-4-yl)ethyl)bicyclo[2.2.2]octan-1-ylamino)methyl)-2H-pyrido[3,2-b][1,4]oxazin-3(4H)-one Hydrochloride] the figure was 0.031 µg/mL.

Still in this experiment, the particulars now being: agar dilution, 35° C., 16-20 hr; lowest concentration that completely inhibited growth.
Regarding `COc1cnc2ccc(=O)n(CC(O)C34CCC(NCc5ccc6c(n5)NC(=O)CO6)(CC3)CO4)c2c1` (single isomer, unassigned) [Example 54b, 6-(((1-(1-hydroxy-2-(7-methoxy-2-oxo-1,5-naphthyridin-1(2H)-yl)ethyl)-2-oxabicyclo[2.2.2]octan-4-yl)amino)methyl)-2H-pyrido[3,2-b][1,4]oxazin-3(4H)-one], the S_aureus_Smith_WT_MIC came out at 0.0160 µg/mL. For `O=C1COc2ccc(CNC34CCC(C(O)Cn5c(=O)ccc6ncc(F)cc65)(CC3)OC4)nc2N1` (single isomer, unassigned) [Example 55a, 6-((1-(2-(7-Fluoro-2-oxo-1,5-naphthyridin-1(2H)-yl)-1-hydroxyethyl)-2-oxabicyclo[2.2.2]octan-4-ylamino)methyl)-2H-pyrido[3,2-b][1,4]oxazin-3(4H)-one], the S_aureus_Smith_WT_MIC was determined as 1.00 µg/mL. Take `O=C1COc2ccc(CNC34CCC(C(O)Cn5c(=O)ccc6ncc(F)cc65)(CC3)OC4)nc2N1` (single isomer, unassigned) [Example 55b, 6-((1-(2-(7-fluoro-2-oxo-1,5-naphthyridin-1(2H)-yl)-1-hydroxyethyl)-2-oxabicyclo[2.2.2]octan-4-ylamino)methyl)-2H-pyrido[3,2-b][1,4]oxazin-3(4H)-one]: the S_aureus_Smith_WT_MIC is 0.250 µg/mL. Same read-out and setting: with `COc1ccc2ncc(F)c(C(C)C(O)C34CCC(NCc5ccc6c(n5)NC(=O)CO6)(CC3)CO4)c2n1` (single isomer, unassigned) [Example 151a, 6-((1-(2-(3-Fluoro-6-methoxy-1,5-naphthyridin-4-yl)-1-hydroxypropyl)-2-oxabicyclo[2.2.2]octan-4-ylamino)methyl)-2H-pyrido[3,2-b][1,4]oxazin-3(4H)-one] the figure was 32.0 µg/mL.

With `COc1ccc2ncc(F)c(C(C)C(O)C34CCC(NCc5ccc6c(n5)NC(=O)CO6)(CC3)CO4)c2n1` (single isomer, unassigned) [Example 151b, 6-((1-(2-(3-Fluoro-6-methoxy-1,5-naphthyridin-4-yl)-1-hydroxypropyl)-2-oxabicyclo[2.2.2]octan-4-ylamino)methyl)-2H-pyrido[3,2-b][1,4]oxazin-3(4H)-one], the S_aureus_Smith_WT_MIC came out at 4.00 µg/mL. Molecule `N#Cc1cnc2ccc(=O)n(CC(O)C34CCC(NCc5cc6c(cn5)OCCO6)(CC3)CO4)c2c1` (single isomer, unassigned; enantiomer b) [Example 161, 5-(2-(4-((2,3-Dihydro-[1,4]dioxino[2,3-c]pyridin-7-yl)methylamino)-2-oxabicyclo[2.2.2]octan-1-yl)-2-hydroxyethyl)-6-oxo-5,6-dihydro-1,5-naphthyridine-3-carbonitrile (Enantiomer B)] returned a S_aureus_Smith_WT_MIC of 2.00 µg/mL.

The experiment is the same for the next values; noted with them: agar dilution, 35° C., 16-20 hr; lowest concentration that completely inhibited growth; Hydrochloride.
For `COc1ccc2ncc(F)c(CCC34CCC(NCc5ccc6c(n5)NC(=O)C(C)O6)(CC3)CO4)c2n1.Cl` (single isomer, unassigned) [Example 100a, 6-((1-(2-(3-Fluoro-6-methoxy-1,5-naphthyridin-4-yl)ethyl)-2-oxabicyclo[2.2.2]octan-4-ylamino)methyl)-2-methyl-2H-pyrido[3,2-b][1,4]oxazin-3(4H)-one Hydrochloride], the S_aureus_Smith_WT_MIC is 0.250 µg/mL. Take `COc1ccc2ncc(F)c(CCC34CCC(NCc5ccc6c(n5)NC(=O)C(C)O6)(CC3)CO4)c2n1.Cl` (single isomer, unassigned) [Example 100b, 6-((1-(2-(3-Fluoro-6-methoxy-1,5-naphthyridin-4-yl)ethyl)-2-oxabicyclo[2.2.2]octan-4-ylamino)methyl)-2-methyl-2H-pyrido[3,2-b][1,4]oxazin-3(4H)-one Hydrochloride]: the S_aureus_Smith_WT_MIC was 0.0630 µg/mL.
